Measurements: patent US10449186B2, “Phenylethynyl-substituted benzenes and heterocycles for the treatment of cancer” (UNIVERSITY OF KENTUCKY RESEARCH FOUNDATION, priority 2017, dated 2019)
Where two headings read alike, the source gives them in different places.

Tests used:
[1] = test system: LS174T colon cancer cells; assay: LS174T cell proliferation assay; format: cell-based; parameters: effects on LS174T colon cancer cell proliferation (Table 3): unit not given here; details: for inhibition at 1 µM / inhibition at 10 µM / inhibition at 0.1 µM: Homo sapiens, LS174T
Procedure: Cell proliferation assay. LS174T cells were grown in RPMI medium (Mediatech) supplemented with 5% fetal bovine serum and 1% penicillin/streptomycin. For cell proliferation assays, 3×10^4 cells/well growing in 12-well plates were treated with DMSO or inhibitors. The cell numbers and viability were analyzed by Vi-Cell Cell Viability Analyzer after 4 days. The IC50 values were calculated with GraphPad Prim 5.

Water solubility = details: hydrochloride salts
[2] = read-out: inhibition of cell proliferation (%) of colon cancer LS174T cells
[3] = read-out: inhibition of LS174T colon cancer cell proliferation
[4] = Table 2, 1 μM, read-out: inhibition of cell proliferation (%) of colon cancer LS174T cells
[5] = Table 2, 10 μM, read-out: inhibition of cell proliferation (%) of colon cancer LS174T cells
[6] = Table 1, 1 μM, read-out: inhibition of proliferation (%) of colon cancer LS174T cells
[7] = Table 1, 10 μM, read-out: inhibition of proliferation (%) of colon cancer LS174T cells

Compound | inhibition at 1 µM [1, 2] | inhibition at 10 µM [1, 2] | melting point | also measured
Fc1cccc(F)c1C#Cc1cccc2ncccc12 [Compound 5v, 5-((2,6-Difluorophenyl)ethynyl)quinoline] | 43.1 ± 11.2% | 94.7 ± 2.9% | 98 to 100 °C | 
Fc1cccc(F)c1C#Cc1cc2ccccc2nc1Cl [Compound 5p, 2-Chloro-3-((2,6-difluorophenyl)ethynyl)quinoline] | 28.4 ± 10.5% | 85.1 ± 6.2% | 137 to 138 °C | 
CN1CCN(c2ncc(C#Cc3c(F)cccc3F)c3ccccc23)CC1 [Compound 5pp, 4-((2,6-Difluorophenyl)ethynyl)-1-(4-methylpiperazin-1-yl)isoquinoline] | 23.2 ± 9.4% | 100% |  | water solubility (Water solubility): completely water-soluble
Fc1cccc(F)c1C#Cc1ccc2cccnc2c1 [Compound 5x, 7-((2,6-Difluorophenyl)ethynyl)quinoline] | 90.7 ± 0.6% | 99.4 ± 0.3% | 123 to 125 °C | inhibition at 1 µM [1, 3]: > 75%; inhibition at 0.1 µM [1, 2]: 2.9 ± 14%
Nc1ccnc2cc(C#Cc3c(F)cccc3F)ccc12 [Compound 5dd, 7-((2,6-Difluorophenyl)ethynyl)quinolin-4-amine] |  |  | 219 to 221 °C | inhibition at 1 µM [1, 4]: 23.6 ± 2.5%; inhibition at 10 µM [1, 5]: 97.7 ± 2.2%
Fc1cccc(F)c1C#Cc1ccnc2ccccc12 [Compound 5o, 4-((2,6-Difluorophenyl)ethynyl)quinoline] | 15.4 ± 9.1% | 59 ± 7.5% | 101 to 102 °C | 
CN(C)c1ncc(C#Cc2c(F)cccc2F)c2ncccc12 [Compound 5qq, 8-((2,6-Difluorophenyl)ethynyl)-N,N-dimethyl-1,6-naphthyridin-5-amine] | 87.9 ± 0.8% | 85.2 ± 1% | 149 to 150 °C | inhibition at 1 µM [1, 3]: > 75%; inhibition at 0.1 µM [1, 2]: 59.5 ± 3.5%; water solubility (Water solubility): completely water-soluble
Fc1cccc(F)c1C#Cc1ccc2ccccc2n1 [Compound 5m, 2-((2,6-Difluorophenyl)ethynyl)quinoline] | 67.3 ± 13.6% | 93.8 ± 1.7% | 127 to 129 °C | inhibition at 0.1 µM [1, 2]: 6.1 ± 27%
Fc1cccc(F)c1C#Cc1ccc2ncccc2c1 [Compound 5w, 6-((2,6-Difluorophenyl)ethynyl)quinoline] | 11 ± 30.4% | 80.1 ± 1% | 91 to 93 °C | 
Fc1cccc(F)c1C#Cc1ccc(-n2cccc2)cc1 [Compound 4d, 1-(4-((2,6-Difluorophenyl)ethynyl)phenyl)-1H-pyrrole] |  |  | 122 to 124 °C | activity in a cell proliferation assay ([1]; 100 nM): considerably diminished activity; activity in a cell proliferation assay ([1]; 1 μM): comparable to 4-((2,6-difluorophenyl)ethynyl)-N,N-dimethylaniline (2); inhibition at 0.1 µM ([1]; Table 1, 100 nM, read-out: inhibition of proliferation (%) of colon cancer LS174T cells): 11%; inhibition at 1 µM [1, 6]: 77.5%; inhibition at 10 µM [1, 7]: 96.7%
CN1CCN(c2ccc(C#Cc3c(F)cccc3F)cc2)CC1 [Compound 4c, 1-(4-((2,6-Difluorophenyl)ethynyl)phenyl)-4-methylpiperazine] |  |  | 126 to 128 °C | inhibition at 1 µM [1, 6]: 19.9%; inhibition at 10 µM [1, 7]: 99.6%
O=C1CCCCN1c1ccc(C#Cc2c(F)cccc2F)cc1 [Compound 4a, 1-(4-((2,6-Difluorophenyl)ethynyl)phenyl)piperidin-2-one] |  |  | 148 to 150 °C | inhibition at 1 µM [1, 6]: 6.4%; inhibition at 10 µM [1, 7]: 68.1%
Nc1ncc(C#Cc2c(F)cccc2F)c2ccccc12 [Compound 5mm, 4-((2,6-Difluorophenyl)ethynyl)isoquinolin-1-amine] | 86.2 ± 1.6% | 93.1 ± 1.6% | 200 to 201 °C | inhibition at 0.1 µM [1, 2]: 35.5 ± 1.7%
Fc1cncc(F)c1C#Cc1ccccc1 [Compound 7a, 3,5-Difluoro-4-(phenylethynyl)pyridine] |  |  | 52 to 54 °C | effects on LS174T colon cancer cell proliferation (Table 3) ([1]; 30 nM): 5.3; effects on LS174T colon cancer cell proliferation (Table 3) ([1]; 100 nM): 24.7; effects on LS174T colon cancer cell proliferation (Table 3) ([1]; 300 nM): 12.2
CN(C)c1cnc(C#Cc2c(F)cccc2F)cn1 [Compound 5d, 5-((2,6-Difluorophenyl)ethynyl)-N,N-dimethylpyrazin-2-amine] |  |  | 137 to 138 °C | inhibition at 1 µM [1, 4]: 22.9 ± 9.8%; inhibition at 10 µM [1, 5]: 91.6 ± 3%
CNc1ccc(C#Cc2c(F)cncc2F)cc1 [Compound 7c, 4-((3,5-Difluoropyridin-4-yl)ethynyl)-N-methylaniline] |  |  | 149 to 151 °C | effects on LS174T colon cancer cell proliferation (Table 3) ([1]; 30 nM): 20.3; effects on LS174T colon cancer cell proliferation (Table 3) ([1]; 100 nM): 49.5; effects on LS174T colon cancer cell proliferation (Table 3) ([1]; 300 nM): 62.6
Fc1ccc2cc(C#Cc3c(F)cccc3F)cnc2c1 [Compound 5s, 3-((2,6-Difluorophenyl)ethynyl)-7-fluoroquinoline] | 69.4 ± 4.5% | 95.1 ± 1.6% | 142 to 143 °C | inhibition at 0.1 µM [1, 2]: 14.8 ± 5.5%
CN(C)c1ccc(C#Cc2c(F)cccc2F)nc1 [Compound 5a, 6-((2,6-Difluorophenyl)ethynyl)-N,N-dimethylpyridin-3-amine] |  |  | 120 to 122 °C | inhibition at 0.1 µM ([1]; Table 2, 100 nM, read-out: inhibition of cell proliferation (%) of colon cancer LS174T cells): 15.1 ± 7.4%; inhibition at 1 µM [1, 4]: 68.9 ± 1.3%; inhibition at 10 µM [1, 5]: 85.2 ± 3.8%
Fc1cccc(F)c1C#Cc1cccc2[nH]ncc12 [Compound 5g, 4-((2,6-Difluorophenyl)ethynyl)-1H-indazole] | 19.8 ± 13.6% | 96.2 ± 2% | 178 to 179 °C | 
Fc1cccc(F)c1C#Cc1cnc2c(F)cccc2c1 [Compound 5t, 3-((2,6-Difluorophenyl)ethynyl)-8-fluoroquinoline] | 63.6 ± 8.4% | 89.1 ± 8.2% | 136 to 137 °C | inhibition at 0.1 µM [1, 2]: 8.8 ± 5.1%
Fc1cccc(F)c1C#Cc1ccc2cnccc2c1 [Compound 5jj, 6-((2,6-difluorophenyl)ethynyl)isoquinoline] |  |  | 97 to 99 °C | inhibition at 1 µM [1, 4]: 11.6 ± 21.3%; inhibition at 10 µM [1, 5]: 82.4 ± 10.2%
Fc1ccc2ccnc(C#Cc3c(F)cccc3F)c2c1 [Compound 5ll, 1-((2,6-Difluorophenyl)ethynyl)-7-fluoroisoquinoline] | 71.1 ± 3.5% | 96.2 ± 0.1% | 177 to 178 °C | inhibition at 0.1 µM [1, 2]: 0%
Fc1cccc(F)c1C#Cc1ccc2[nH]ncc2c1 [Compound 5h, 5-((2,6-Difluorophenyl)ethynyl)-1H-indazole] | 17.6 ± 7.9% | 82.9 ± 9.8% | 193 to 195 °C | 
Fc1cccc(F)c1C#Cc1cccc2cnccc12 [Compound 5ii, 5-((2,6-Difluorophenyl)ethynyl)isoquinoline] |  |  | 115 to 117 °C | inhibition at 1 µM [1, 4]: 64.2 ± 6.1%; inhibition at 10 µM [1, 5]: 93.6 ± 0.5%
Fc1cccc(F)c1C#Cc1ccc2cncnc2c1 [Compound 5rr, 7-((2,6-Difluorophenyl)ethynyl)quinazoline] |  |  | 166 to 168 °C | inhibition at 1 µM [1, 4]: 33.8 ± 4.8%; inhibition at 10 µM [1, 5]: 96.3 ± 0.8%
